In ChEMBL document CHEMBL1909046, “DrugMatrix in vitro pharmacology data”:

Legend:
Thromboxane-A synthase = biological target: T1, Thromboxane-A synthase (Homo sapiens, UniProt P24557); assay: biochemical; assay type: tissue-based, Platelet;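 further: enzyme inhibition assay with PGH2 supplied as substrate; in other assays of this panel Not Active means under 50% inhibition at 10 µM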
T1 sequence (P24557 whole entry): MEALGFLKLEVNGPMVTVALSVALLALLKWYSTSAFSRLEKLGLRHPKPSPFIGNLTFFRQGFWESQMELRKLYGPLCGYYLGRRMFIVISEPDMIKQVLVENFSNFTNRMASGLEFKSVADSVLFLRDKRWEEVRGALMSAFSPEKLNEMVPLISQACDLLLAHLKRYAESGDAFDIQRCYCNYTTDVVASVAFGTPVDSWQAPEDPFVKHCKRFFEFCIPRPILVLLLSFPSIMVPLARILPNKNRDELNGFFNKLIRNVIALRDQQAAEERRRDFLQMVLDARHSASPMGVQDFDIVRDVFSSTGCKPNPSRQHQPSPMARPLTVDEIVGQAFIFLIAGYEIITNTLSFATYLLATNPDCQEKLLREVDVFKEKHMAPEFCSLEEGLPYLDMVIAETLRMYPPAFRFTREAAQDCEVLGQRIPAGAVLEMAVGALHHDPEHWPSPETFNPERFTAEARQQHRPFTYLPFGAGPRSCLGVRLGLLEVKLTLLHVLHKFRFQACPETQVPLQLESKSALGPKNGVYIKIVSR

[1] = biological target: Epidermal growth factor receptor (Homo sapiens, UniProt P00533); assay: DRUGMATRIX: Protein Tyrosine Kinase, EGF Receptor enzyme inhibition (substrate: Poly(Glu:Tyr)); assay type: cell-based, Insect cells; conditions: Not Active = under 50% inhibition at 10 µM
Epidermal growth factor receptor, sequence (P00533 whole entry): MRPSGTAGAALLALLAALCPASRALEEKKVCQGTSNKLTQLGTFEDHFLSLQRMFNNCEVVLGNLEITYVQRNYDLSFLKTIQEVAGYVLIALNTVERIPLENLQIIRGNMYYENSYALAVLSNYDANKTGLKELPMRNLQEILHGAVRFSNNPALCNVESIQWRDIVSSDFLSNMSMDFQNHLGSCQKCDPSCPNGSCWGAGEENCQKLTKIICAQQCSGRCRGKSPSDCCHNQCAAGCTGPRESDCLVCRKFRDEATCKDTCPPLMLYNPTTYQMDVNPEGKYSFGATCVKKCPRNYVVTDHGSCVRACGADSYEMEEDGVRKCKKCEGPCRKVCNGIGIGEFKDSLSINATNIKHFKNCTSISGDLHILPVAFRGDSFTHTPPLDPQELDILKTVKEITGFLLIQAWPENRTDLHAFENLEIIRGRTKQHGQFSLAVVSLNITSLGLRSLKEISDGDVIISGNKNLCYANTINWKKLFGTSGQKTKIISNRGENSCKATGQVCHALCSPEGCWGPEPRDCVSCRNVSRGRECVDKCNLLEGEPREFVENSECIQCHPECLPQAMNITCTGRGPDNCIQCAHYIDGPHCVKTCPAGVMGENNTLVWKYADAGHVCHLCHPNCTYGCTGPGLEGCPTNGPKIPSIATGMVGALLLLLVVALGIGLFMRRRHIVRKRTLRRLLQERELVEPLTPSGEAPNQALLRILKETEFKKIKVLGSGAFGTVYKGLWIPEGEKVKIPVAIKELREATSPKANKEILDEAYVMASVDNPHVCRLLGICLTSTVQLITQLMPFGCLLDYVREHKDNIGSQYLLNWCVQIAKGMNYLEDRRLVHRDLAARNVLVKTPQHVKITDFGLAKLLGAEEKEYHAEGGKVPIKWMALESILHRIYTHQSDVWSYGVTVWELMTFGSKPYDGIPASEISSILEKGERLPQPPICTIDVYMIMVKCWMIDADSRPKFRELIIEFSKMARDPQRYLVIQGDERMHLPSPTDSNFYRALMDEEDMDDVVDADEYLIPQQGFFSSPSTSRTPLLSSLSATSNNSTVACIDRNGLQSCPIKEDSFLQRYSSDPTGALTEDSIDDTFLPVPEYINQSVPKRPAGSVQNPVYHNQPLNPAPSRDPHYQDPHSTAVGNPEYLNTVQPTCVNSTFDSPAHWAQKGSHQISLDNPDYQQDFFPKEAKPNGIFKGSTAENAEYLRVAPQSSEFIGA

[2] = biological target: Sodium-dependent dopamine transporter (Homo sapiens, UniProt Q01959); assay: DRUGMATRIX: Dopamine Transporter radioligand binding (ligand: [125I] RTI-55); assay type: cell membranes, CHO-K1, Membrane; conditions: Not Active = under 50% inhibition at 10 µM
Sodium-dependent dopamine transporter, sequence (Q01959 whole entry): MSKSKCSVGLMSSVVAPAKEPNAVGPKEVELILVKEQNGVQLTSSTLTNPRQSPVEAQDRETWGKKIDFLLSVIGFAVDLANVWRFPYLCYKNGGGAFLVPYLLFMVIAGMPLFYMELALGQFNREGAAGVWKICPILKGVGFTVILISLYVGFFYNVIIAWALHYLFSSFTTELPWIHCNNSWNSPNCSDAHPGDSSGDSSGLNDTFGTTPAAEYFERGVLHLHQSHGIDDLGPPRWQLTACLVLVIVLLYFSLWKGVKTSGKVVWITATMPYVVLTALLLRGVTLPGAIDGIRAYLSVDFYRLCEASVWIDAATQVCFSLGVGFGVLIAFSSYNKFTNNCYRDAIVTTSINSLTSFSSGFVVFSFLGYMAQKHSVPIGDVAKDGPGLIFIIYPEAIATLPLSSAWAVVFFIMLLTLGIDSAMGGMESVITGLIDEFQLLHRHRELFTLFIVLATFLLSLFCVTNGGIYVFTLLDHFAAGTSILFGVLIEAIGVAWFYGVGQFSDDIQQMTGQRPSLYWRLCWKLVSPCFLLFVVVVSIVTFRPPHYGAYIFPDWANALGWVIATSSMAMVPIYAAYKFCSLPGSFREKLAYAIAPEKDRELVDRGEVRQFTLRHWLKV

Melanocortin receptor 3 = Melanocortin receptor 3 (Homo sapiens, UniProt P41968); assay type: cell membranes, Membrane; conditions: hek293; further: in other assays of this panel Not Active means under 50% inhibition at 10 µM
Melanocortin receptor 3, sequence (P41968 whole entry): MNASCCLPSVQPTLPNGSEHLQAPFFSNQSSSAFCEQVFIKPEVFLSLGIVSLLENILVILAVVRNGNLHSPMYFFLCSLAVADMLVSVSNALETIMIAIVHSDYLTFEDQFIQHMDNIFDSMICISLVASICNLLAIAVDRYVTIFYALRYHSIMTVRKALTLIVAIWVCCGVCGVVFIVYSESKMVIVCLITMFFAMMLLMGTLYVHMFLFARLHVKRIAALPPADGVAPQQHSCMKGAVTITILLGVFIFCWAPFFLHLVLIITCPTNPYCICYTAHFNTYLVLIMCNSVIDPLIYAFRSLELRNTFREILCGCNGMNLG

[3] = DRUGMATRIX: Platelet-Derived Growth Factor (PDGF) radioligand binding (ligand: [125I] PDGF); assay type: cell-based; conditions: nih3t3; Not Active = under 50% inhibition at 10 µM
[4] = biological target: Vascular endothelial growth factor receptor 1 (Homo sapiens, UniProt P17948); assay type: cell-based; conditions: huvec; further: in other assays of this panel Not Active means under 50% inhibition at 10 µM
Vascular endothelial growth factor receptor 1, sequence (P17948 whole entry): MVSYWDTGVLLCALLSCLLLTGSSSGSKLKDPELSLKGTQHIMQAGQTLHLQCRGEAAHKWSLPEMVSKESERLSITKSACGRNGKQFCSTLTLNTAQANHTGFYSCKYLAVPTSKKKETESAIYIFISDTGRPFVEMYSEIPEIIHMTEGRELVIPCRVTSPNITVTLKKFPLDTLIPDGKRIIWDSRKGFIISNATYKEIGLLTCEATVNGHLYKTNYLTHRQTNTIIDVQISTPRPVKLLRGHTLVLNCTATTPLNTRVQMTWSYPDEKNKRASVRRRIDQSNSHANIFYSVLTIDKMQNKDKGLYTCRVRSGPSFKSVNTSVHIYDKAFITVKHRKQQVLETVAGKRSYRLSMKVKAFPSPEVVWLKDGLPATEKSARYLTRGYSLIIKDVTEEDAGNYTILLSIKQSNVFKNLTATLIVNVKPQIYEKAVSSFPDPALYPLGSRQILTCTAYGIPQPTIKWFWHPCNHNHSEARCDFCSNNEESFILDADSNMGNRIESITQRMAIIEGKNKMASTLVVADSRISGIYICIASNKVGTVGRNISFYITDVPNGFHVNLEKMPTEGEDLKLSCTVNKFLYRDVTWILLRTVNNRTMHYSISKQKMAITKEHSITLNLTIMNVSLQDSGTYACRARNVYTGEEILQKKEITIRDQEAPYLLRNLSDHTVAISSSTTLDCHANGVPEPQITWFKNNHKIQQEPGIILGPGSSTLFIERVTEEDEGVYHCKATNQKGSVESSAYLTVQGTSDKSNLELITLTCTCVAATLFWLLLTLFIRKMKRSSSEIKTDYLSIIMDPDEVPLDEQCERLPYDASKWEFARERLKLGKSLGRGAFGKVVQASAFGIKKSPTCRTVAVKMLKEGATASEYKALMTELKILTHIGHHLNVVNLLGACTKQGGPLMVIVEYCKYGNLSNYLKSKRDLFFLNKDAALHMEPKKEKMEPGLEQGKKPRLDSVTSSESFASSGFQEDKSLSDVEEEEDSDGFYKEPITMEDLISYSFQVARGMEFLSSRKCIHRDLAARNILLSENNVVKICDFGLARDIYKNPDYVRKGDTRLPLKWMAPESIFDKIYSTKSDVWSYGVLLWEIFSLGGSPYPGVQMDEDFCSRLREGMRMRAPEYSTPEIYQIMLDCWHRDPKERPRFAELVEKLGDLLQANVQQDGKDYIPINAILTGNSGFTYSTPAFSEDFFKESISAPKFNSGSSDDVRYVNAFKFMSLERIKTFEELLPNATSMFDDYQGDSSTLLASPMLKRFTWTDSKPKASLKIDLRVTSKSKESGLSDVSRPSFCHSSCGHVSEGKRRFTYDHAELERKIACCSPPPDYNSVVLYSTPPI

O=C(O)c1cc(-c2ccc(F)cc2F)ccc1O [DIFLUNISAL]
Not Active: IC50 (Thromboxane-A synthase; platelet) | IC50 ([1]; insect cells) | IC50 ([2]; cho-k1) | IC50 (Melanocortin receptor 3) | IC50 [3] | Ki [3] | IC50 [4]

CCn1cc(C(=O)O)c(=O)c2cc(F)c(N3CCNC(C)C3)c(F)c21 (configuration not stated) [LOMEFLOXACIN]
Not Active: IC50 (Thromboxane-A synthase; platelet) | IC50 ([1]; insect cells) | IC50 ([2]; cho-k1) | IC50 (Melanocortin receptor 3) | IC50 [3] | Ki [3] | IC50 [4]

CN(C)C(=O)Oc1cccc([N+](C)(C)C)c1.[Br-] [NEOSTIGMINE BROMIDE]
Not Active: IC50 (Thromboxane-A synthase; platelet) | IC50 ([1]; insect cells) | IC50 ([2]; cho-k1) | IC50 (Melanocortin receptor 3) | IC50 [3] | Ki [3] | IC50 [4]

CN1CCCC(CN2c3ccccc3Sc3ccccc32)C1 (configuration not stated) [MEPAZINE]
Not Active: IC50 (Thromboxane-A synthase; platelet) | IC50 ([1]; insect cells) | IC50 ([2]; cho-k1) | IC50 (Melanocortin receptor 3) | IC50 [3] | Ki [3] | IC50 [4]

ClC(Cl)(Cl)Cl [CARBON TETRACHLORIDE]
Not Active: IC50 (Thromboxane-A synthase; platelet) | IC50 ([1]; insect cells) | IC50 ([2]; cho-k1) | IC50 (Melanocortin receptor 3) | IC50 [3] | Ki [3] | IC50 [4]

CCN(CC)CCCC(C)Nc1c2ccc(Cl)cc2nc2ccc(OC)cc12 (configuration not stated) [QUINACRINE]
Not Active: IC50 (Thromboxane-A synthase; platelet) | IC50 ([1]; insect cells) | IC50 ([2]; cho-k1) | IC50 (Melanocortin receptor 3) | IC50 [3] | Ki [3] | IC50 [4]

CC[C@H]1[C@@H]2C[C@H]3[C@@H]4N(C)c5ccccc5[C@]45C[C@@H]([C@@H]2[C@H]5O)N3[C@@H]1O [AJMALINE]
Not Active: IC50 (Thromboxane-A synthase; platelet) | IC50 ([1]; insect cells) | IC50 ([2]; cho-k1) | IC50 (Melanocortin receptor 3) | IC50 [3] | Ki [3] | IC50 [4]

C[C@H]1[C@H](NC(=O)/C(=N\OC(C)(C)C(=O)O)c2csc(N)n2)C(=O)N1S(=O)(=O)O [AZTREONAM]
Not Active: IC50 (Thromboxane-A synthase; platelet) | IC50 ([1]; insect cells) | IC50 ([2]; cho-k1) | IC50 (Melanocortin receptor 3) | IC50 [3] | Ki [3] | IC50 [4]

CO/N=C(\C(=O)N[C@@H]1C(=O)N2C(C(=O)O)=C(COC(C)=O)CS[C@H]12)c1csc(N)n1 [CEFOTAXIME]
Not Active: IC50 (Thromboxane-A synthase; platelet) | IC50 ([1]; insect cells) | IC50 ([2]; cho-k1) | IC50 (Melanocortin receptor 3) | IC50 [3] | Ki [3] | IC50 [4]

CC(C)c1c(C(=O)Nc2ccccc2)c(-c2ccccc2)c(-c2ccc(F)cc2)n1CC[C@@H](O)C[C@@H](O)CC(=O)O [ATORVASTATIN]
Not Active: IC50 (Thromboxane-A synthase; platelet) | IC50 ([1]; insect cells) | IC50 ([2]; cho-k1) | IC50 (Melanocortin receptor 3) | IC50 [3] | Ki [3] | IC50 [4]

CC(C)C[C@H]1C(=O)N2CCC[C@H]2[C@]2(O)O[C@](NC(=O)[C@@H]3C=C4c5cccc6[nH]cc(c56)C[C@H]4N(C)C3)(C(C)C)C(=O)N12 [ERGOCRYPTINE]
Not Active: IC50 (Thromboxane-A synthase; platelet) | IC50 ([1]; insect cells) | IC50 ([2]; cho-k1) | IC50 (Melanocortin receptor 3) | IC50 [3] | Ki [3] | IC50 [4]

CCN(C(C)=O)c1cccc(-c2ccnc3c(C#N)cnn23)c1 [ZALEPLON]
Not Active: IC50 (Thromboxane-A synthase; platelet) | IC50 ([1]; insect cells) | IC50 ([2]; cho-k1) | IC50 (Melanocortin receptor 3) | IC50 [3] | Ki [3] | IC50 [4]

N[C@@H](Cn1ccc(=O)c(O)c1)C(=O)O [L-MIMOSINE]
Not Active: IC50 (Thromboxane-A synthase; platelet) | IC50 ([1]; insect cells) | IC50 ([2]; cho-k1) | IC50 (Melanocortin receptor 3) | IC50 [3] | Ki [3] | IC50 [4]

Nc1cc(-c2ccncc2)c[nH]c1=O [INAMRINONE]
Not Active: IC50 (Thromboxane-A synthase; platelet) | IC50 ([1]; insect cells) | IC50 ([2]; cho-k1) | IC50 (Melanocortin receptor 3) | IC50 [3] | Ki [3] | IC50 [4]

NC(=O)c1cccc(N)c1 [3-AMINOBENZAMIDE]
Not Active: IC50 (Thromboxane-A synthase; platelet) | IC50 ([1]; insect cells) | IC50 ([2]; cho-k1) | IC50 (Melanocortin receptor 3) | IC50 [3] | Ki [3] | IC50 [4]

NC(=O)c1cccnc1 [NIACINAMIDE]
Not Active: IC50 (Thromboxane-A synthase; platelet) | IC50 ([1]; insect cells) | IC50 ([2]; cho-k1) | IC50 (Melanocortin receptor 3) | IC50 [3] | Ki [3] | IC50 [4]

CCC1=C(C)CN(C(=O)NCCc2ccc(S(=O)(=O)NC(=O)N[C@H]3CC[C@H](C)CC3)cc2)C1=O [GLIMEPIRIDE]
Not Active: IC50 (Thromboxane-A synthase; platelet) | IC50 ([1]; insect cells) | IC50 ([2]; cho-k1) | IC50 (Melanocortin receptor 3) | IC50 [3] | Ki [3] | IC50 [4]

CC(C)NCC(O)c1ccccc1Cl (configuration not stated) [CLORPRENALINE]
Not Active: IC50 (Thromboxane-A synthase; platelet) | IC50 ([1]; insect cells) | IC50 ([2]; cho-k1) | IC50 (Melanocortin receptor 3) | IC50 [3] | Ki [3] | IC50 [4]

CC(=O)OCC(=O)[C@@]12OC(C)(C)O[C@@H]1C[C@H]1[C@@H]3C[C@H](F)C4=CC(=O)C=C[C@]4(C)[C@@]3(F)[C@@H](O)C[C@@]12C [FLUOCINONIDE]
Not Active: IC50 (Thromboxane-A synthase; platelet) | IC50 ([1]; insect cells) | IC50 ([2]; cho-k1) | IC50 (Melanocortin receptor 3) | IC50 [3] | Ki [3] | IC50 [4]

COc1cccc2c1C(=O)c1c(O)c3c(c(O)c1C2=O)C[C@@](O)(C(C)=O)C[C@@H]3O[C@H]1C[C@H](N)[C@H](O)[C@H](C)O1 [DAUNORUBICIN]
Not Active: IC50 (Thromboxane-A synthase; platelet) | IC50 ([1]; insect cells) | IC50 ([2]; cho-k1) | IC50 (Melanocortin receptor 3) | IC50 [3] | Ki [3] | IC50 [4]

COc1ccccc1N
Not Active: IC50 (Thromboxane-A synthase; platelet) | IC50 ([1]; insect cells) | IC50 ([2]; cho-k1) | IC50 (Melanocortin receptor 3) | IC50 [3] | Ki [3] | IC50 [4]

CC[C@]1(O)C[C@@H]2CN(CCc3c([nH]c4ccccc34)[C@@](C(=O)OC)(c3cc4c(cc3OC)N(C)[C@H]3[C@@](O)(C(N)=O)[C@H](O)[C@]5(CC)C=CCN6CC[C@]43[C@@H]65)C2)C1 [VINDESINE]
Not Active: IC50 (Thromboxane-A synthase; platelet) | IC50 ([1]; insect cells) | IC50 ([2]; cho-k1) | IC50 (Melanocortin receptor 3) | IC50 [3] | Ki [3] | IC50 [4]

CCOc1nc2cccc(C(=O)O)c2n1Cc1ccc(-c2ccccc2-c2nnn[nH]2)cc1
3.28 µM: IC50 ([1]; read-out: IC50)
3.06 µM: IC50 (Thromboxane-A synthase; read-out: IC50)
Not Active: IC50 ([2]; cho-k1) | IC50 (Melanocortin receptor 3) | IC50 [3] | Ki [3] | IC50 [4]

C[S+](C)[O-] [DIMETHYL SULFOXIDE]
Not Active: IC50 (Thromboxane-A synthase; platelet) | IC50 ([1]; insect cells) | IC50 ([2]; cho-k1) | IC50 (Melanocortin receptor 3) | IC50 [3] | Ki [3] | IC50 [4]

C[C@@H]1O[C@@H](O[C@H]2C[C@@H](O)[C@]3(CO)[C@H]4[C@H](O)C[C@]5(C)[C@@H](C6=CC(=O)OC6)CC[C@]5(O)[C@@H]4CC[C@]3(O)C2)[C@H](O)[C@H](O)[C@H]1O [OUABAIN]
Not Active: IC50 (Thromboxane-A synthase; platelet) | IC50 ([1]; insect cells) | IC50 ([2]; cho-k1) | IC50 (Melanocortin receptor 3) | IC50 [3] | Ki [3] | IC50 [4]

C#C[C@]1(O)CC[C@H]2[C@@H]3CCC4=CC(=O)CC[C@]4(C)[C@H]3CC[C@@]21C [ETHISTERONE]
Not Active: IC50 (Thromboxane-A synthase; platelet) | IC50 ([1]; insect cells) | IC50 ([2]; cho-k1) | IC50 (Melanocortin receptor 3) | IC50 [3] | Ki [3] | IC50 [4]

O=C(c1ccccc1F)N1CCC(Cc2ccccc2)CC1
Not Active: IC50 (Thromboxane-A synthase; platelet) | IC50 ([1]; insect cells) | IC50 ([2]; cho-k1) | IC50 (Melanocortin receptor 3) | IC50 [3] | Ki [3] | IC50 [4]

O=C(O)CCNC(=O)c1ccc(/N=N/c2ccc(O)c(C(=O)O)c2)cc1 [BALSALAZIDE]
Not Active: IC50 (Thromboxane-A synthase; platelet) | IC50 ([1]; insect cells) | IC50 ([2]; cho-k1) | IC50 (Melanocortin receptor 3) | IC50 [3] | Ki [3] | IC50 [4]

N=C(N)c1ccc(OCCCCCOc2ccc(C(=N)N)cc2)cc1 [PENTAMIDINE]
Not Active: IC50 (Thromboxane-A synthase; platelet) | IC50 ([1]; insect cells) | IC50 (Melanocortin receptor 3) | IC50 [3] | Ki [3] | IC50 [4]

CN1C(=O)CN=C(c2ccccc2)c2cc([N+](=O)[O-])ccc21 [NIMETAZEPAM]
Not Active: IC50 (Thromboxane-A synthase; platelet) | IC50 ([1]; insect cells) | IC50 ([2]; cho-k1) | IC50 (Melanocortin receptor 3) | IC50 [3] | Ki [3] | IC50 [4]

O=c1c(-c2ccc(O)cc2)coc2cc(O)cc(O)c12 [GENISTEIN]
16.9 µM: IC50 ([2]; read-out: IC50)
13.4 µM: Ki ([2]; read-out: Ki)
Not Active: IC50 (Melanocortin receptor 3) | IC50 [3] | Ki [3] | IC50 [4]
7.72 µM: IC50 (Thromboxane-A synthase; read-out: IC50)

Cn1c(=O)c2c(ncn2C)n(C)c1=O [CAFFEINE]
Not Active: IC50 (Thromboxane-A synthase; platelet) | IC50 ([2]; cho-k1) | IC50 (Melanocortin receptor 3) | IC50 [3] | Ki [3] | IC50 [4]
